Assay: Measurement of Δλmax (UV-Vis absorption spectra in 20.0% 1,2-hexanediol aqueous solution and in water)
Format: physicochemical
Details: for λmaxD: maximum absorption wavelength in 20.0% by mass aqueous solution of 1,2-hexanediol; for λmaxD / λmaxW: coloring material 0.002 to 0.005%; for λmaxW: maximum absorption wavelength in ion-exchange water; for Δλmax: λmaxD−λmaxW
Text: Specifically, the ink according to the present invention contains a first coloring material and a second coloring material satisfying the following conditions. […] Further, the sum of the Δλmax1 and the Δλmax2 needs to be 35.0 or less. λmax refers to a maximum absorption wavelength in the visible region (380 to 750 nm) in a UV-Vis absorption spectrum of a coloring material, and can be measured using a spectrophotometer.
In a coloring material in which an associating state and a non-associating state are concurrently present, the absorption spectrum has a plurality of maximal-absorption wavelengths in some cases. Then, respective peak shapes (heights) at the maximal-absorption wavelengths representing the associating state and the non-associating state vary depending on a liquid medium to be used in some cases. The maximum absorption wavelength in the present invention means the following. That is, even in the case where a maximum absorption wavelength in an absorption spectrum in 20.0% by mass aqueous solution of 1,2-hexanediol shifts based on an absorption spectrum in water, a peak originated from a maximum absorption wavelength in water is taken as the maximum absorption wavelength. […] In the present invention, since it is important to consider the shift of a wavelength giving a highest absorbance, a maximum absorption wavelength in 20.0% by mass aqueous solution of 1,2-hexanediol is considered to be a maximal-absorption wavelength on a larger wavelength side, which is a peak originated from a maximum absorption wavelength in water.
For each coloring material, the difference Δλmax (=λmaxD−λmaxW) between a maximum absorption wavelength (λmaxD) in a 20.0% by mass aqueous solution of 1,2-hexanediol and a maximum absorption wavelength (λmaxW) in water in UV-Vis absorption spectra was measured. λmaxD and λmaxW were measured by diluting each coloring material by using a 20.0% by mass aqueous solution of 1,2-hexanediol or ion-exchange water so that the content of the coloring material became 0.002 to 0.005%. The measurement condition is shown below. Then, the value Δλmax=λmaxD−λmaxW was determined from the measurement. Here, the unit of λmax is “nm.”
Spectrophotometer: a self-recording spectrophotometer (trade name “U-3300,” made by Hitachi, Ltd.)
Measurement cell: 1-cm quartz cell
Sampling interval: 0.1 nm
Scanning speed: 30 nm/min

Compound | λmaxD | λmaxW | Δλmax
Cc1ccc(S(=O)(=O)Nc2cc(S(=O)(=O)[O-])cc3cc(S(=O)(=O)[O-])c(N=Nc4cc(Cl)ccc4Oc4ccccc4)c(O)c23)cc1.[Na+].[Na+] [C.I. Acid Red 249] | 520.0 nm | 524.0 nm | −4.0 nm
O=C(O)c1nn(-c2ccc(S(=O)(=O)O)cc2)c(O)c1N=Nc1ccc(S(=O)(=O)O)cc1 [C.I. Acid Yellow 23] | 430.5 nm | 427.0 nm | 3.5 nm
COc1cc(N=Nc2cccc(S(=O)(=O)O)c2)ccc1NC(=O)Nc1ccc(N=Nc2cccc(S(=O)(=O)O)c2)cc1OC [C.I. Direct Yellow 132] | 411.0 nm | 405.5 nm | 5.5 nm
Nc1cc2c(O)c(N=Nc3ccc(N=Nc4ccc(S(=O)(=O)[O-])cc4)c4ccc(S(=O)(=O)[O-])cc34)c(S(=O)(=O)[O-])cc2cc1S(=O)(=O)[O-].[Na+].[Na+].[Na+].[Na+] [C.I. Food Black 2] | 595.0 nm | 585.5 nm | 9.5 nm
COc1cc(N=Nc2cccc(S(=O)(=O)O)c2)ccc1Nc1nc(NCCS(=O)(=O)O)nc(Nc2ccc(N=Nc3cccc(S(=O)(=O)O)c3)cc2OCCCS(=O)(=O)O)n1 [yellow coloring material 4] | 382.0 nm | 391.5 nm | −9.5 nm
C.I. Direct Yellow 86 | 399.0 nm | 380.0 nm | 19.0 nm

Results, then the compound that gave them:

λmaxD | λmaxW | Δλmax | Compound
630.5 nm | 605.5 nm | 25.0 nm | Cc1c(C#N)c(Nc2ccc(S(=O)(=O)O)cc2)nc(Nc2ccc(S(=O)(=O)O)cc2)c1N=Nc1sc(N=Nc2ccccc2C#N)c(-c2ccc(Nc3nc(NCCS(=O)(=O)O)nc(Nc4cc(S(=O)(=O)O)ccc4S(=O)(=O)O)n3)cc2)c1C#N [black coloring material 1]
604.0 nm | 604.0 nm | 0.0 nm | Cc1c(C#N)c(Nc2ccc(S(=O)(=O)O)cc2)nc(Nc2ccc(S(=O)(=O)O)cc2)c1N=Nc1nc(-c2ccc3ccccc3c2)c(N=Nc2cc(S(=O)(=O)O)c3cc(S(=O)(=O)O)cc(S(=O)(=O)O)c3c2)s1 [black coloring material 4]
559.5 nm | 555.0 nm | 4.5 nm | CCc1cc(C)c(S(=O)(=O)O)c(CC)c1Nc1nc(N(c2nc3ccc(S(=O)(=O)O)cc3s2)c2c(CC)cc(C)c(S(=O)(=O)O)c2CC)cc(C)c1N=Nc1c(C#N)c(C(C)(C)C)nn1-c1nc2ccc(S(=O)(=O)O)cc2s1 [magenta coloring material 1]
512.0 nm | 508.5 nm | 3.5 nm | Cn1c(=O)c(C(=O)c2cccc(S(=O)(=O)O)c2)c2c3c(c(Nc4cc(Nc5nc(NCCNc6nc(Nc7cc(Nc8ccc9c%10c8C(=O)c8ccccc8-c%10c(C(=O)c8cccc(S(=O)(=O)O)c8)c(=O)n9C)c(S(=O)(=O)O)cc7S(=O)(=O)O)nc(Oc7ccc(S(=O)(=O)O)cc7)n6)nc(Oc6ccc(S(=O)(=O)O)cc6)n5)c(S(=O)(=O)O)cc4S(=O)(=O)O)ccc31)C(=O)c1ccccc1-2 [magenta coloring material 2]
451.5 nm | 427.5 nm | 24.0 nm | CC(C)(C)c1nn(-c2cc(C(=O)O)cc(C(=O)O)c2)c(N)c1N=Nc1nnc(SCCSc2nnc(N=Nc3c(C(C)(C)C)nn(-c4cc(C(=O)O)cc(C(=O)O)c4)c3N)s2)s1 [yellow coloring material 1]
408.0 nm | 417.0 nm | −9.0 nm | Cc1cc(Nc2nc(NCCS(=O)(=O)O)nc(Nc3ccc(N=Nc4ccc(N=Nc5ccc(S(=O)(=O)O)cc5)cc4S(=O)(=O)O)c(C)c3)n2)ccc1N=Nc1ccc(N=Nc2ccc(S(=O)(=O)O)cc2)cc1S(=O)(=O)O [yellow coloring material 3]

— patent publication US8992674B2, “Ink, ink cartridge and ink jet recording method” (Canon Kabushiki Kaisha, priority 2012, dated 2015)
